pKi: −log10 of the molar value. A value given as a limit tells only on which side of the number the result lay.

For this assay, the target named is T1, Calpain-1 catalytic subunit (Sus scrofa, UniProt P35750).
T1 sequence (P35750 whole entry): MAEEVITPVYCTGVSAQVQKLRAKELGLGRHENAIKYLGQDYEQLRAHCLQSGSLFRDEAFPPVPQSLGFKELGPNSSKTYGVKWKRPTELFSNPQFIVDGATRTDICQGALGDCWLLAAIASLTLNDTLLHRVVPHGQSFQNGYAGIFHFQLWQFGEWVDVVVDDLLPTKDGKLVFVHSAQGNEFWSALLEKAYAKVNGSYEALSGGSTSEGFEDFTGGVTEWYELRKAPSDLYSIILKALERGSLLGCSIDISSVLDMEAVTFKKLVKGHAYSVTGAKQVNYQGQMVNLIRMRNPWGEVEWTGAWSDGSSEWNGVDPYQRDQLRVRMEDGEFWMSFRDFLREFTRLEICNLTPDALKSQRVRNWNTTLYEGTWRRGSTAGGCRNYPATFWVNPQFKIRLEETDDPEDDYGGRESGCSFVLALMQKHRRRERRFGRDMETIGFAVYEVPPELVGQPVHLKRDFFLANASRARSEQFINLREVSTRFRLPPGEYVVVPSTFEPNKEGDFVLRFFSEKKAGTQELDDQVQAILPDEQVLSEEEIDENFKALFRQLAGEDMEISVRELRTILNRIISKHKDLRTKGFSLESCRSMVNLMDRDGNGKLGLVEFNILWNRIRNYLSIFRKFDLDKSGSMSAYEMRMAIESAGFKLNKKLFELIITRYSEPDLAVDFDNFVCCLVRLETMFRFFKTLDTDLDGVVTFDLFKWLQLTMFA
Description: Binding affinity against porcine erythrocyte calpain I was determined.
`CC(C)CC(NC(=O)OCc1ccccc1)C(=O)N[C@@H](Cc1ccccc1)C(=O)C(=O)N[C@@H](Cc1ccccc1)C(=O)O` (stereo partly specified): the pKi is 6.08.

`CC(C)CC(NC(=O)OCc1ccccc1)C(=O)N[C@@H](Cc1ccccc1)C(=O)C(=O)NNCc1ccccc1` (stereo partly specified) showed a negative-log Ki (pKi) of 8.33.

Consider `COC(=O)[C@H](Cc1ccccc1)NC(=O)C(=O)[C@H](Cc1ccccc1)NC(=O)C(CC(C)C)NC(=O)OCc1ccccc1` (stereo partly specified), for which the pKi is 6.17.

`COC(=O)[C@@H](Cc1ccccc1)NC(=O)C(=O)[C@H](Cc1ccccc1)NC(=O)C(CC(C)C)NC(=O)OCc1ccccc1` (stereo partly specified) showed a pKi of 6.03.

Compound `CC(C)CC(NC(=O)OCc1ccccc1)C(=O)N[C@@H](Cc1ccccc1)C(=O)C(=O)NCCc1ccccc1` (stereo partly specified) had a pKi of 7.27.

Regarding `CC(C)CC(NC(=O)OCc1ccccc1)C(=O)N[C@@H](Cc1ccccc1)C(=O)C(=O)N[C@H](Cc1ccccc1)C(=O)O` (stereo partly specified), the pKi is under 3.37.

Usually pKi stands for the negative decadic logarithm of the Ki, by convention in mol/L. A low value points to a high Ki.
